Source: ChEMBL document CHEMBL1153245, “A profile of the in vitro anti-tumor activity of imidazolium-based ionic liquids” (2010)

What was measured:
Assay type in all cases: functional
SF-268 = experiment: Anticancer activity against human SF268 cells after 48 hrs by sulforhodamine B assay
IGROV-1 = experiment: Anticancer activity against human IGROV1 cells after 48 hrs by sulforhodamine B assay; settings: IGROV-1, 48 h
SK-MEL-28 = experiment: Anticancer activity against human SK-MEL-28 cells after 48 hrs by sulforhodamine B assay
HT-29 = experiment: Anticancer activity against human HT-29 cells after 48 hrs by sulforhodamine B assay
[1] = Anticancer activity against human Hs 578T cells after 48 hrs by sulforhodamine B assay
SF-539 = experiment: Anticancer activity against human SF539 cells after 48 hrs by sulforhodamine B assay
EKVX = experiment: Anticancer activity against human EKVX cells after 48 hrs by sulforhodamine B assay
T47D = experiment: Anticancer activity against human T47D cells after 48 hrs by sulforhodamine B assay
HL-60(TB) = experiment: Anticancer activity against human HL-60(TB) cells after 48 hrs by sulforhodamine B assay
OVCAR-4 = experiment: Anticancer activity against human OVCAR4 cells after 48 hrs by sulforhodamine B assay
SK-MEL-5 = experiment: Anticancer activity against human SK-MEL-5 cells after 48 hrs by sulforhodamine B assay
SNB-19 = experiment: Anticancer activity against human SNB19 cells after 48 hrs by sulforhodamine B assay
UACC-62 = experiment: Anticancer activity against human UACC62 cells after 48 hrs by sulforhodamine B assay
LOX IMVI = experiment: Anticancer activity against human LOXIMVI cells after 48 hrs by sulforhodamine B assay
A549 = experiment: Anticancer activity against human A549 cells after 48 hrs by sulforhodamine B assay
Malme-3M = experiment: Anticancer activity against human MALME-3M cells after 48 hrs by sulforhodamine B assay
MOLT-4 = experiment: Anticancer activity against human MOLT4 cells after 48 hrs by sulforhodamine B assay
MDA-MB-435 = experiment: Anticancer activity against human MDA-MB-435 cells after 48 hrs by sulforhodamine B assay
CAKI-1 = experiment: Anticancer activity against human Caki1 cells after 48 hrs by sulforhodamine B assay
OVCAR-5 = experiment: Anticancer activity against human OVCAR5 cells after 48 hrs by sulforhodamine B assay
HCT-15 = experiment: Anticancer activity against human HCT15 cells after 48 hrs by sulforhodamine B assay
K562 = experiment: Anticancer activity against human K562 cells after 48 hrs by sulforhodamine B assay
NCI/ADR-RES = experiment: Anticancer activity against human NCI/ADR-RES cells after 48 hrs by sulforhodamine B assay
BT-549 = experiment: Anticancer activity against human BT549 cells after 48 hrs by sulforhodamine B assay
NCI-H322M = experiment: Anticancer activity against human NCI-H322M cells after 48 hrs by sulforhodamine B assay
ACHN = experiment: Anticancer activity against human ACHN cells after 48 hrs by sulforhodamine B assay
[2] = Anticancer activity against human […] cells after 48 hrs by sulforhodamine B assay
MDA-MB-231 = experiment: Anticancer activity against human MDA-MB-231 cells after 48 hrs by sulforhodamine B assay
786-0 = experiment: Anticancer activity against human 786-0 cells after 48 hrs by sulforhodamine B assay
NCI-H522 = experiment: Anticancer activity against human NCI-H522 cells after 48 hrs by sulforhodamine B assay
CCRF-CEM = experiment: Anticancer activity against human CCRF-CEM cells after 48 hrs by sulforhodamine B assay
[3] = read-out: LC50 (the source's name)

CCCCCCCCCCCC[n+]1ccn(C)c1.F[B-](F)(F)F
GI50 (SF-268): 5.98 µM | GI50 (IGROV-1): 533 nM | CC50 (IGROV-1; [3]): > 100 µM | GI50 (SK-MEL-28): 10.1 µM | GI50 (HT-29): 2190 nM | GI50 [1]: 6.11 µM | GI50 (SF-539): 2880 nM | GI50 (EKVX): 792 nM | GI50 (T47D): 4.31 µM | GI50 (HL-60(TB)): 324 nM | CC50 (HL-60(TB); [3]): 9.93 µM | GI50 (OVCAR-4): 2590 nM | GI50 (SK-MEL-5): 1660 nM | CC50 (SK-MEL-5; [3]): 54.5 µM | GI50 (SNB-19): 10.9 µM | GI50 (UACC-62): 4.25 µM | GI50 (LOX IMVI): 1360 nM | CC50 (LOX IMVI; [3]): 34.9 µM | GI50 (A549): 7.14 µM | GI50 (Malme-3M): 5.06 µM | GI50 (MOLT-4): 2580 nM | GI50 (MDA-MB-435): 2150 nM | CC50 (MDA-MB-435; [3]): 77.5 µM | GI50 (CAKI-1): 2990 nM | GI50 (OVCAR-5): 7.49 µM | GI50 (HCT-15): 18.1 µM | GI50 (K562): 363 nM | GI50 (NCI/ADR-RES): 39.7 µM | GI50 (BT-549): 2380 nM | CC50 (BT-549; [3]): 51.9 µM | GI50 (NCI-H322M): 24.6 µM | GI50 (ACHN): 10 µM | GI50 [2]: 312 nM | CC50 [2, 3]: 9.48 µM | GI50 (MDA-MB-231): 4.68 µM | CC50 (MDA-MB-231; [3]): 64.2 µM | GI50 (786-0): 5.77 µM | GI50 (NCI-H522): 2960 nM | GI50 (CCRF-CEM): 1620 nM
